Tested on: THP-1 Blue, Raw Blue, HEK-blue hTLR3, HEK-Blue hTLR4, HEK-Blue hNOD2
Assay: Innate immune response activation assays in TLR/NOD2 reporter cell lines
Type: cell-based
Conditions: 5 cell lines covering TLR and NOD2 expression; 3 PPQ lots; highest drug substance concentration tested 10 μg/mL
Experimental: Method development, qualification, and testing for activation of innate immune response was performed. The innate immune assays performed compared 3 PPQ lots. The work was conducted using 5 cell lines to cover TLR and NOD2 expression (THP-1 Blue, Raw Blue, HEK-blue hTLR3, HEK-Blue hTLR4, HEK-Blue hNOD2). […] The highest drug substance concentration tested was 10 μg/mL. A dose of the sterile preparation of purified corticotropin at 80 U is, equivalent to approximately 1 mg of drug substance per total body weight of subject.

Structure (SMILES) | dose response for activation of innate immune response
CCCc1nc2c(N)nc3ccccc3c2s1 [CL075] | robust dose responses
CC(=O)N[C@@H]1[C@@H](O[C@H](C)C(=O)N[C@@H](C)C(=O)N[C@H](CCC(=O)O)C(N)=O)[C@H](O)[C@@H](CO)O[C@H]1O [MDP] | robust dose responses

From US12233105B1, “Methods for storing and warming purified corticotropin compositions” (ANI Pharmaceuticals, Inc., priority 2022, dated 2025)
